Type in all cases: cell-based, human
The test system of assay [1] is hPSC-derived ventricular-like cardiomyocytes. Description: Perforated whole-cell patch clamp, evoked AP of ventricular-like cardiomyocytes paced at 1 Hz. To be noted: for APA / APD50 / APD90 / MDP / dV/dT: evoked AP, 1 Hz, percentage of untreated cardiomyocytes, mean±SEM. The method, then: Perforated whole-cell recording was used for pharmacological tests.
Nifedipine (Sigma-Aldrich, N7634) was prepared in DMSO. […] Other chemicals were from Sigma-Aldrich.
For orientation: The patch-clamp technique gives a direct electrical read-out from membranes.

A further assay deals with hESC line H7. Nature of the assay: Cardiac differentiation of hESC line H7, FACS of CTNT-positive cells and cardiomyocyte yield. To be noted: for cardiac differentiation efficacy (in words): individual addition of the antioxidant to S12 basal medium. The method, then: (§1) For small molecule-induced cardiac differentiation, hESC line H7 or hiPSCs were digested with Versene solution into single cells and seeded on VTN-NC-coated, 24-well plates at a density of 2.5-3.0×10^5 cells/well. Y27632 (10 μM) was supplemented on the first day and withdrawn thereafter. Cultures were maintained in E8 medium for 2-3 days until they reached 90% confluence. To initiate cell differentiation (designated as day 0), the medium was changed to S12 medium without insulin. Cells were treated with 4-8 μM CHIR99021 (Tocris, 4423) for 1 day. Then, the medium was replaced with fresh medium without CHIR99021. At day 3, 5 μM IWR-1 (Sigma-Aldrich, 10161) was supplied with fresh medium for 2 days. From day 5, insulin-containing S12 medium was used. Thereafter, the medium was changed every other day (FIG. 1a).
(§2) Cardiomyocytes were digested into single cells with 0.25% trypsin-EDTA (Life Technology, 25200-072) at 37° C. for about 5 min, and washed with buffer B, which contains 0.5% bovine serum albumin (Sigma, A9418-50G) in phosphate-buffered saline (PBS). Then the cells were fixed with 4% paraformaldehyde at room temperature and washed with buffer A, which contains 0.5% bovine serum albumin and 0.1% saponin (Sigma-Aldrich, S7900) in PBS. The cells were then incubated with an anti-human CTNT primary antibody (R&D systems, MAB1874) for 40 min at 4° C. and washed with buffer A, followed by incubation with a goat anti-mouse FITC-conjugated secondary antibody (ZSGB-BIO, ZF-0312) for 40 min at 4° C. Data were collected on FACScalibur (Becton Dickinson) and analyzed with FlowJo software (Treestar).

Assay [2] relates to hiPSC line XVF 4. Description: QPCR of IRX4 and NR2F2 in RA- or BMS493-treated hiPSC cultures. To be noted: 14-day-old cultures; BMS493-treated versus RA-treated. The method, then: (§3) For directed differentiation of atrial or ventricular myocytes, 1 μM RA (Sigma-Aldrich, R2625) or 1 μM BMS493 (Tocris, 3509) was added to the differentiating cultures during days 5-8 of differentiation as described previously^9.
Total RNA was isolated using RNeasy Plus Mini kit (Qiagen, 74134). One microgram of total RNA was reverse transcribed using the PrimeScript™ RT reagent kit with gDNA eraser (Takara, RR047A). RT-PCR was performed with 2×Taq Mix (CW-BIO, CW0682C) according to the manufacturer's instructions. PCR products were analyzed using 1.5% agarose gel electrophoresis. QPCR was performed in triplicate using the 2×QuantiFast SYBR Green I PCR Master Mix (Qiagen, 204057) on a Rotor Gene 6200 Real-Time PCR Machine (Corbett) with an annealing temperature of 60° C. The expression of each gene was normalized to GAPDH gene expression. The primer sequences are listed in Table 4 (primer sequences for RT-PCR) and Table 5 (primer sequences for QPCR).

The next assay has as its system hiPSC lines. Description: Cardiac differentiation of hiPSC lines in S12 medium, FACS of CTNT-positive cells. To be noted: for percentage of CTNT-positive cells after glucose deprivation enrichment: 2 days of glucose deprivation (glucose replaced with DL-lactate); for percentage of CTNT-positive cells before glucose deprivation enrichment: hiPSC line XVF 4 in S12 medium, 1 μM, days 5-8. The method, then: as §1, §3, §2

The subject of assay [3] is hiPSC line XVF 4. Description: Double immunofluorescence staining of MLC2V and CTNT in 60-day-old cultures. The method, then: Differentiated cultures were digested with 0.25% trypsin-EDTA, and the cells were plated on 0.1% gelatin-coated coverslips for 5 days to allow full attachment. The coverslips were washed with PBS and fixed in 4% paraformaldehyde for 20 min at 4° C. The fixed cells were then permeabilized with 0.1% Triton X-100 for 20 min at 4° C., and blocked with 10% goat serum (ZSGB-BIO, ZLI-9021) for 1 h at room temperature. Then, the cells were incubated overnight at 4° C. with the following primary antibodies: anti-human CTNT (R&D systems, MAB1874), mouse anti-human α-actinin (Sigma-Aldrich, A7811), mouse anti-human MHC (Abcam, ab15), goat anti-human α-SMA (Abcam, ab5694), mouse anti-human MLC2A (Synaptic Systems, 311011) and rabbit anti-human MLC2V (ProteinTech, 10906-1-AP). Goat anti-mouse 488- (ZSGB-BIO, ZF-0512) or 594-conjugated secondary antibody (ZSGB-BIO, ZF-0513), and goat anti-rabbit 488- (ZSGB-BIO, ZF-0511) or 594-conjugated secondary antibody (ZSGB-BIO, ZF-0516) were used as secondary antibodies. Nuclei were counterstained with 4′,6-diamidino-2-phenylindole (DAPI) (Sigma-Aldrich, D0542). Immunofluorescence images were visualized and recorded using an Olympus microscope system X51 or Olympus LSCM FV1000 (Olympus).

The test system of assay [4] is hiPSC-derived cardiomyocytes. Nature of the assay: Whole-cell patch clamp classification of AP types in RA- and BMS493-treated cultures. The method, then:
The dissociation method used has been described previously^9. Briefly, 25-30-day-old differentiated cardiomyocyte clusters were washed with a low Ca^2+ solution, and then incubated in 1 mg/mL collagenase II (Life Technology, 17101-015) dissolved in a low Ca^2+ solution for 30-40 min at 37° C. The isolated cells were suspended in S12 medium containing 10% FBS, transferred to 0.1% gelatin-coated glass coverslips, and then maintained in a 5% CO2 incubator at 37° C.
Action potential (AP) and ion channel activities, which are critical for normal functions of cardiomyocytes, were investigated using whole-cell patch clamp technology on single cardiomyocytes. The classification of nodal-, atrial- and ventricular-like APs was based on the AP properties. Particularly, nodal-like AP has a slower maximal upstroke velocity (dV/dt), smaller action potential amplitude (APA), depolarized maximum diastolic potential (MDP), and faster beating rate than those of atrial- and ventricular-like APs. An AP duration at 90%0, of repolarization (APD90) value of 150 ms was used to classify atrial- and ventricular-like APs, because of the significant plateau phase of ventricular AP^21, 22. […] The parameters of the three AP types recorded were also analyzed (FIG. 3c).

On to `COC(=O)C1=C(C)NC(C)=C(C(=O)OC)C1c1ccccc1[N+](=O)[O-]` [Nifedipine], for which, in assay [1] (1 nM), the APA amounted to 96.7 ± 2.7%, the APD50 came to 92.7 ± 2.1%, the APD90 was determined as 94.6 ± 2.0% and the MDP was determined as 99.7 ± 2.7%. This compound showed a dV/dT in assay [1] (1 nM) of 90.6 ± 4.1%. Further, in assay [1] (10 nM), the APA was 96.2 ± 0.7%, the APD50 stood at 70.1 ± 2.9 %, the APD90 is given as 73.6±2.7% and the MDP was 103.5 ± 1.1%. For the same compound, the dV/dT in assay [1] (10 nM) is 96.4 ± 5.9%. In assay [1] (100 nM), the APA is given as 88.3 ± 2.4%, the APD50 is 55.3 ± 4.3 %, the APD90 was determined as 60.8±4.3% and the MDP stood at 100.8 ± 2.9%. The compound further returned a dV/dT in assay [1] (100 nM) of 86.1 ± 8.8%. In assay [1] (1000 nM), this compound came in with an APA of 73.8 ± 4.4 %, an APD50 of 36.0 ± 3.3 %, an APD90 of 47.1±6.1% and an MDP of 100.8 ± 3.1%. Moreover, the dV/dT in assay [1] (1000 nM) is 60.0 ± 11.3 %.
With `CC(=O)N[C@@H](CS)C(=O)O` [N-acetyl-L-cysteine], in the assay with hESC line H7, the “cardiac differentiation efficacy (in words)” value was “marginally improved”.
In the case of `O=C1O[C@H]([C@@H](O)CO)C(O)=C1O` [L-ascorbic acid], in the assay on hESC line H7, the “cardiac differentiation efficacy (in words)” value was “marginally improved”.
On to `CC1(C)CC=C(C#Cc2ccccc2)c2cc(/C=C/c3ccc(C(=O)O)cc3)ccc21` [BMS493], for which the “expression level of ventricular-specific gene IRX4” value with hiPSC line XVF 4 [2] is reported as “significantly higher”. For the same compound, in the assay on hiPSC lines, the “percentage of CTNT-positive cells after glucose deprivation enrichment” value was 94.3% and the “percentage of CTNT-positive cells before glucose deprivation enrichment” value is 86.3%. The “MLC2V expression in cardiomyocytes” value in the assay on hiPSC line XVF 4 [3] was “widely expressed”. Also, in assay [4], the “percentage of recorded APs that were ventricular-like” value turned out to be 93.3%.
For `Cc1c(C)c2c(c(C)c1O)CCC(C)(C(=O)O)O2` (stereo not drawn) [trolox], the “cardiac differentiation (FACS for CTNT positive cells)” value with hESC line H7 (added to B27-based medium with six compounds removed, VTN-NC first three days) is given as “efficiently supported cardiac differentiation”. The “cardiac differentiation efficacy (in words)” value in the assay with hESC line H7 was “marginally improved”.
In assay [1] (1 nM), `CC(C)NCC(O)c1ccc(O)c(O)c1` (stereo not drawn) [Isoproterenol] came in with an APA of 99.9 ± 1.7%, an APD50 of 99.1 ± 0.7%, an APD90 of 97.3 ± 1.7% and an MDP of 101.2 ± 1.5%. This compound also registered a dV/dT in assay [1] (1 nM) of 99.9 ± 3.0%. In assay [1] (10 nM), this compound had an APA of 101.7 ± 1.6%, an APD50 of 93.0 ± 1.6%, an APD90 of 92.0 ± 2.5% and an MDP of 102.8 ± 2.3%. In assay [1] (10 nM), the dV/dT is 108.1 ± 1.8%. In assay [1] (100 nM), this compound yielded an APA of 102.1 ± 2.5%, an APD50 of 90.7 ± 1.8%, an APD90 of 90.8 ± 1.8% and an MDP of 104.8 ± 3.7%. The same compound came in with a dV/dT in assay [1] (100 nM) of 105.6 ± 2.5%. In addition, in assay [1] (1000 nM), the APA came out at 99.0 ± 5.2%, the APD50 is listed as 87.0 ± 1.6 %, the APD90 is given as 87.3 ± 1.6 % and the MDP is 101.8 ± 5.0%. This compound also yielded a dV/dT in assay [1] (1000 nM) of 105.3 ± 3.1%. In assay [1] (1 Hz stimulation), the “APD90 (in words)” value is recorded as “minor reduction”. In addition, in assay [1] (1 Hz stimulation, except APD90), the “effects on the parameters of AP” value was “no significant effects”.
`CC(=O)C(=O)[O-].[Na+]` [sodium pyruvate]: the “cardiac differentiation efficacy (in words)” value with hESC line H7 is given as “marginally improved”.
Take `Cc1cccc(CCN2CCC(C(=O)c3ccc(NS(C)(=O)=O)cc3)CC2)n1` [E-4031]: in assay [1] (1 nM), the APA is on record as 102.9 ± 1.1%, the APD50 was found to be 103.8 ± 3.8%, the APD90 turned out to be 102.1 ± 3.1% and the MDP is 101.9 ± 1.2%. The dV/dT in assay [1] (1 nM) was 101.2 ± 8.0%. In addition, in assay [1] (10 nM, 1 Hz stimulation), the “effects on the AP” value was “minor effects”. In assay [1] (10 nM), the APA worked out at 103.8 ± 1.5%, the APD50 is 110.1 ± 5.4%, the APD90 was 112.1 ± 5.0% and the MDP was determined as 101.5 ± 1.7%. In addition, the dV/dT in assay [1] (10 nM) is listed as 112.4 ± 5.5%. For the same compound, in assay [1] (100 nM), the APA came out at 103.0 ± 2.3%, the APD50 is recorded as 144.0 ± 6.7 %, the APD90 was determined as 169.6±13.4% and the MDP came to 99.6 ± 2.9%. The dV/dT in assay [1] (100 nM) was 111.4 ± 9.6%. In addition, in assay [1] (1000 nM), the APA is on record as 95.6 ± 4.0%, the APD50 was found to be 151.1 ± 7.5 %, the APD90 is reported as 195.6±12.3% and the MDP was determined as 92.4 ± 2.8%. For the same compound, the dV/dT in assay [1] (1000 nM) was 95.6 ± 7.4%. In addition, the AP duration entry in assay [1] (1 Hz stimulation (0.1-0.3 nA), dose dependence) is given as “prolonged the AP duration in a dose-dependent manner”. Also, in assay [1] (1 Hz stimulation, up to 1000 nM), the “change in APA and dV/dt” value is given as “no significant change”.
Take `CC1=C(/C=C/C(C)=C/C=C/C(C)=C/C(=O)O)C(C)(C)CCC1` [RA, retinoic acid]: in the assay on hiPSC lines, the “percentage of CTNT-positive cells after glucose deprivation enrichment” value is reported as 95.7% and the “percentage of CTNT-positive cells before glucose deprivation enrichment” value came out at 85%. Also, the “percentage of recorded APs that were atrial-like” value in assay [4] (30-day-old cardiomyocytes, n=31) turned out to be 90.3%.

The record behind these values is patent US20190100725A1, “CELL CULTURE MEDIUM AND CULTURE MEDIUM SUPPLEMENT” (Institute of Biophysics, Chinese Academy of Sciences, priority 2016, published 2019).
